Results as given in US20090170803A1, “[…] OF […]” (priority 2002, published 2009).
Entries after “also recorded” stand apart in the source; their conditions may differ.

Tests used:
human PMNL = experiment: Preliminary in vitro studies: effects of A2AAR agonists on phagocytic cells (human PMNL); assay type: cell-based
human monocytes = experiment: Inhibition of LPS-stimulated human monocyte TNF production; assay type: cell-based
C57BL/6 mice = experiment: Murine model of endotoxin-induced septic shock (E. coli 026:B6 LPS), mortality; assay type: in vivo; set-up: protection of mice from E. Coli 026:B6 LPS-induced endotoxemia, dose response (FIG. 1): dose or concentration left out as unconfirmed
A2A-KO mice = experiment: Murine septic shock model in A2A-KO mice; assay type: in vivo; settings: 5 μg/kg, four doses at six hour intervals beginning 12 hours after LPS 12.5 mg/kg
E. Coli = experiment: Mice injected with live E. Coli and treated with ceftriaxone, survival; assay type: in vivo; settings: 20 million E. Coli IP at time 0; ceftriaxone once at time 0; 50 μg/kg ATL146e 8 times at 6 hour intervals
IL-6 = system: IL-6; set-up: species or system C57BL/6 mice; settings: mouse, in vivo, ip
RANTES = system: RANTES; set-up: species or system C57BL/6 mice; settings: mouse, in vivo
neutrophils in kidneys = system: neutrophils in kidneys; set-up: species or system C57BL/6 mice; settings: mouse, in vivo, ip

**Q.** Which “effects on phagocytic cells in vitro and in animal models of acute inflammation” value (human PMNL) does the source give for `CCNC(=O)[C@H]1O[C@@H](n2cnc3c(N)nc(C#CCC4CCC(C(=O)OC)CC4)nc32)C(O)C1O` (stereo in doubt) [ATL146e, 4-{3-[6-Amino-9-(5-ethylcarbamoyl-3,4-dihydroxy-tetrahydro-furan-2-yl)-9H-purin-2-yl]-prop-2-ynyl}cyclohexanecarboxylic acid methyl ester] here?
**A.** potent agonists and provide anti-inflammatory responses

**Q.** And the “inhibition of LPS-stimulated human monocyte TNF production, potency comparison” value (human monocytes)?
**A.** more potent than CGS21680

**Q.** What about the “protection from death (FIG. 2)” value (C57BL/6 mice; 5 μg/kg i.p. at 6-hour intervals for 24 hours beginning simultaneously with LPS 12.5 mg/kg, p=0.0002) of the same compound?
**A.** protection from death

**Q.** What about the “protection from death after a delay in the onset of therapy (FIG. 3)” value (C57BL/6 mice; 5 μg/kg i.p. at six hour intervals, four doses, delay of 24 hours following LPS challenge (12.5 mg/kg)) of the same compound?
**A.** protection from death

**Q.** What about the “protection of mice from E. Coli 026:B6 LPS-induced endotoxemia, dose response (FIG. 1)” value (C57BL/6 mice; IP one hour prior to LPS and at 6 hour intervals, 8 doses/48 hours) of the same compound?
**A.** dose dependent response

**Q.** What about the “protection at the highest dosages” value (C57BL/6 mice; highest dosages, LPS 12.5 mg/kg) of the same compound?
**A.** complete protection

**Q.** And the “survival at 4 days” value (C57BL/6 mice; highest doses, vehicle mortality 75%)?
**A.** 100%

**Q.** And the “protective effect in A2A-KO mice relative to wild type” value (A2A-KO mice)?
**A.** less protection; also recorded: completely lost

**Q.** And the “survival of mice injected with live E. Coli and treated with ceftriaxone, compared to antibiotic alone (FIG. 6)” value (E. Coli)?
**A.** increases survival

**Q.** And the “renal IL-6 levels, relative to those from mice exposed to LPS/Stx2 (FIG. 7)” value (IL-6)?
**A.** approximately 16%

**Q.** What about the “chemokine Renal RANTES in kidney samples (FIG. 8)” value (RANTES) of the same compound?
**A.** reduction

**Q.** How did the “effects on phagocytic cells in vitro and in animal models of acute inflammation” value (human PMNL) turn out when `CCNC(=O)[C@H]1O[C@@H](n2cnc3c(N)nc(C#CCC4CCC(COC(C)=O)CC4)nc32)C(O)C1O` (stereo in doubt) [ATL193, Acetic acid 4-{3-[6-amino-9-(5-ethylcarbamoyl-3,4-dihydroxytetrahydrofuran-2-yl)-9H-purin-2-yl]-prop-2-ynyl}-cyclohexylmethyl Ester] was run?
**A.** potent agonists and provide anti-inflammatory responses

**Q.** For `CCNC(=O)[C@H]1O[C@@H](n2cnc3c(N)nc(C#C[C@]4(O)CCC[C@@H](C)C4)nc32)C(O)C1O` (stereo in doubt) [ATL-203, 5-[6-Amino-2-(1-hydroxy-3-methylcyclohexylethynyl)purin-9-yl]-3,4-dihydroxytetrahydrofuran-2-carboxylic acid ethylamide], which “renal IL-6 levels, relative to those from mice exposed to LPS/Stx2 (FIG. 7)” value (IL-6) is on record?
**A.** approximately 16%

**Q.** And the “chemokine Renal RANTES in kidney samples (FIG. 8)” value (RANTES)?
**A.** reduction

**Q.** And the “neutrophil positive glomeruli, relative to the Stx2 positive samples (FIG. 9)” value (neutrophils in kidneys)?
**A.** 40%

**Q.** `Nc1nc(NCCc2ccc(O)cc2)nc2nc(-c3ccco3)nn12` [ZM241385, reference compound] was tested. Which “block by A2AAR antagonist of the agonist effect on TNF-stimulated superoxide release” value (human PMNL; adherent PMNLs, with A2AAR agonists) did it give?
**A.** completely blocked

**Q.** What about the “reversal of the inhibition of monocyte TNF production by A2AAR antagonist” value (human monocytes; with ATL146e) of the same compound?
**A.** reversed

**Q.** And the “protective efficacy of ATL146e when ZM is co-administered (FIG. 4)” value (C57BL/6 mice; ZM in equimolar concentrations (3 μg/kg) with ATL146e, six hour intervals for 24 hours beginning 12 hours after LPS)?
**A.** nearly eliminated

**Q.** What about the “protection from death by antagonist alone (FIG. 4)” value (C57BL/6 mice; six hour intervals for 24 hours beginning 12 hours after LPS challenge) of the same compound?
**A.** does not protect

**Q.** With Rolipram [reference compound] as the compound, how does the “accentuation of the A2AAR agonist effects on activation of PMNLs” value (human PMNL; with A2AAR agonists) read?
**A.** synergistically accentuates
